Test results from patent US9845292B2 (Max-Planck-Gesellschaft zur Förderung der Wissenschaften …, priority 2013, dated 2017).
“Also recorded” adds a separate entry of the source. Where two headings read alike, the source gives them in different places. Blank lines part the entries; values can stand above or below the compound they belong to.

Legend:
[1] = biological target: T1, FKBP51 (Homo sapiens, UniProt Q13451); assay: Fluorescence polarization binding assay, FK1-domain of FKBP51WT with tracer F4; design: Purified FK1-domains of FKBP51WT (4.5 nM) with F4 (3 nM), FKBP52WT (400 nM) with F2 (20 nM); implied by Ni-NTA purification) (N); made in house; host or cells: E. coli BL21(DE3)pLysS; conditions: compounds B01-C25; read-out: Affinity(Ki) for FKBP51
T1 sequence (Q13451 42-130 limits assumed): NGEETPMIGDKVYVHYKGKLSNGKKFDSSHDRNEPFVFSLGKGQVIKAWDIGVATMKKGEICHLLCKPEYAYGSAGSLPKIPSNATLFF
Method: The target protein was also diluted in this assay buffer at double the highest concentration required for the final sample. This protein stock was used for a 1:1 serial dilution.
The inventive compound was dissolved in DMSO to reach a 100-times concentrated stock solution. This was used for a 1:1 serial dilution in DMSO.
For FKBP12, −51, and −52 the binding assays were performed in duplicates in the plate format.
The competition curves were analyzed by using SigmaPlot9. Data were fitted to a four parameter logistic curve to deduce the IC50 values. […]
Inhibition constants were measured in a fluorescence polarization binding assay by titrating the compounds.

[2] = biological target: T2, FKBP52 (Homo sapiens, UniProt Q02790); assay: Fluorescence polarization binding assay, FK1-domain of FKBP52WT with tracer F2 (selectivity FKBP51 vs. FKBP52); conditions: selectivity factor over FKBP52
T2 construct: Purified FK1-domains of FKBP51WT (4.5 nM) with F4 (3 nM), FKBP52WT (400 nM) with F2 (20 nM); implied by Ni-NTA purification) (N); made in house; host or cells: E. coli BL21(DE3)pLysS
T2 sequence (Q02790 50-138 limits assumed): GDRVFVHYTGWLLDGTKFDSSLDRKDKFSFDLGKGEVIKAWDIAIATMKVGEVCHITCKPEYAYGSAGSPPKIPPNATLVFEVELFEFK
Outline: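 Compounds titrated against FK1 domain of FKBP52 WT with fluorescent tracer F2, in duplicate; competition curves fitted to four-parameter logistic for IC50. Ki derived from exact competitive-binding equation using tracer Kd; selectivity expressed as Ki(FKBP51)/Ki(FKBP52).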

[3] = test system: N2a neuroblastoma cells; assay: N2a cellular assay (neurite outgrowth); type: cell-based; conditions: for effect of high concentrations on neuronal differentiation: FIG. 1A, 1D; for enhancement of neurite outgrowth of N2a cells: compared to unselective FKBP ligand FK506, FIG. 1; for optimal concentration for enhancement of neurite outgrowth: U-shaped dose-dependency, N2a-cells
Method: At day one N2a cells were plated into 24-well plates with cover slips (pretreated with polylysine) at a density of 35,000 cells/well and cultured with DMEM (incl. FCS 10% and Pen/Strep 1%) for 24 h. Next, cells were transfected with 80 ng expression plasmids encoding Venus as well as 720 ng pRK5 (mock transfection) in a total volume of 500 μl starvation media containing different concentrations of compounds or DMSO for 36 h (media without FCS; induction of neurite outgrowth). Therefore media was removed and replaced by 400 μl DMEM (empty). Next an equivalent volume of plasmids were given to 50 μl OPTIMEM and incubated for 5 min at RT. Additionally 1.5 μl Lipofectamine 2000 was separately dissolved in 50 μl OPTIMEM. After 5 min both solutions (plasmids and Lipofactamine 2000 containing media) were combined and incubated again for another 20 min. After that 100 μl of this mixture was given to 400 μl media per well. (See also protocol of the provider—Life Technologies).
On the next day cells were washed with PBS and incubated for 30 min with 300 μl PFA (4%) and sucrose (5%) to fix cells. After fixation cells were washed three times, mounted onto microscope slides using 4 μl Vectashield (mounting media) and analyzed by fluorescence microscopy. Each bar represents the mean of the neurite length of 30-50 cells after the indicated treatment (FIGS. 1-2).

[4] = biological target: T1, FKBP51; assay: Fluorescence polarization binding assay, FK1-domain of FKBP51WT with tracer F4; design: Purified FK1-domains of FKBP51WT (4.5 nM) with F4 (3 nM), FKBP52WT (400 nM) with F2 (20 nM); made in house; host or cells: E. coli BL21(DE3)pLysS
Outline: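 Competitive fluorescence polarization with tracer F4 and FKBP51 FK1 domain (wild type), compounds titrated by serial dilution from DMSO stock, run in duplicate. IC50 from four-parameter logistic fit; inhibition constants from an exact competitive-binding equation using tracer and inhibitor Kd values.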

[5] = test system: C57BL/6 mice; assay: Combined Dex/CRH test (neuroendocrine analysis, plasma CORT); type: in vivo; conditions: 20 mg/kg i.p.; FIG. 2E
Method: Briefly, a reference blood sample was collected by an incision in the ventral tail vessel at 1500, three days prior to the actual test (‘untreated’ value). […] The injected volume was 0.3 ml for each injection. At 1500, a second blood sample was drawn from the tail vessel (‘after Dex’ value), immediately followed by an i.p. injection of CRH (0.15 mg/kg). Thirty minutes later, the mice were sacrificed and trunk blood was collected (‘after CRH’ value).

[6] = test system: C57Bl/6N mice; assay: Forced swim test (FST); type: in vivo; conditions: FIG. 2D
Method: For the forced swim test (FST), male C57Bl/6N mice at the age of 12 weeks were single housed and acclimated to the room for 2 weeks before the experiment. […] The next morning, mice were subjected to a FST to assess stress-coping behavior. Each mouse was put into a 2 l glass beaker for 6 min and analyzed using an automated video-tracking system (Anymaze 4.20, Stoelting, Ill., USA). Time spent immobile (floating) and time spent struggling was scored by an experienced observer, blind to treatment or condition of the animals.

[7] = FKBP52WT (400 nM) with F2 (20 nM), A series
[8] = FK1-domain of FKBP51WT (4.5 nM) with F4 (3 nM), A series, read-out: Affinity(Ki) for FKBP51

SMILES: COc1ccc(CC[C@@H](OC(=O)[C@@H]2CCCCN2C(=O)[C@H](c2cc(OC)c(OC)c(OC)c2)C2CCCCC2)c2cccc(OCC(=O)O)c2)cc1OC [Compound A17, 2-(3-((R)-1-(((S)-1-((S)-2-Cyclohexyl-2-(3,4,5-trimethoxyphenyl)acetyl)piperidine-2-carbonyl)oxy)-3-(3,4-dimethoxyphenyl)propyl)phenoxy)acetic acid]
rescue of reduced neurite length triggered by Ru26988 ([3]; 1 μM Ru26988, 10 nM A17, FIG. 2A, 2B): rescues reduced neurite length
protection of neurite outgrowth from the suppressing effect of high steroid concentrations ([3]; 1 μM aldosterone or 1 μM RU26988, FIG. 2A-2C): able to protect the neutrite outgrowth of N2a from the suppressing effect of high steroid concentrations
effect of high concentrations on neuronal differentiation [3]: do not lead to reduction of the neuronal differentiation
rescue of reduction of neurite outgrowth triggered by aldosterone ([3]; aldosterone 1 μM, FIG. 2B, 2C): reverts the reduction of neurite outgrowth
enhancement of neurite outgrowth of N2a cells [3]: stronger enhancement of neurite outgrowth; also recorded: promote neurite outgrowth in N2a cells more potently compared to FK506
Ki [4]: < 100 nM
Ki(FKBP51)/Ki(FKBP52) [2, 7]: ++++ (>5000 ++++)

SMILES: CC#C[C@]1(O)CC[C@H]2[C@@H]3C=CC4=CC(=O)C=C[C@]4(C)[C@H]3[C@@H](O)C[C@@]21C [Ru26988, RU26988, reference compound]
optimal concentration for enhancement of neurite outgrowth [3]: 100 nM

SMILES: COc1ccc(CC[C@@H](OC(=O)[C@@H]2CCCCN2C(=O)[C@H](c2cc(OC)c(OC)c(OC)c2)C2CCCCC2)c2cccc(OCCN3CCOCC3)c2)cc1OC [Compound A18]
effect of high concentrations on neuronal differentiation [3]: do not lead to reduction of the neuronal differentiation
enhancement of neurite outgrowth of N2a cells [3]: stronger enhancement of neurite outgrowth; also recorded: promote neurite outgrowth in N2a cells more potently compared to FK506
regulation of stress hormone secretion [5]: enhances the regulation of stress hormone secretion
floating time in forced swim test ([6]; 20.0 mg/kg): reduced floating time
struggling time in forced swim test ([6]; 20.0 mg/kg): enhanced struggling time
stress-coping behavior in the Forced Swim Test ([6]; single injection 20.0 mg/kg, 16 hours prior to testing): elicited a more active stress-coping behavior

SMILES: C=CC[C@@H]1/C=C(\C)C[C@H](C)C[C@H](OC)[C@H]2O[C@@](O)(C(=O)C(=O)N3CCCC[C@H]3C(=O)O[C@H](/C(C)=C/[C@@H]3CC[C@@H](O)[C@H](OC)C3)[C@H](C)[C@@H](O)CC1=O)[C@H](C)C[C@@H]2OC [FK506, reference compound]
concentrations at which the neurite outgrowth stimulating effect is lost ([3]; FIG. 1B): 300 to 1000 nM

SMILES: C[C@]12CCC(=O)C=C1CC[C@@H]1[C@@H]2[C@@H](O)C[C@]2(C=O)[C@@H](C(=O)CO)CC[C@@H]12 [Aldosterone, reference compound]
optimal concentration for enhancement of neurite outgrowth [3]: 100 nM

SMILES: COc1ccc(OCCOC(=O)[C@@H]2CCCCN2C(=O)[C@H](c2cc(OC)c(OC)c(OC)c2)C2CCCCC2)cc1OC [Compound A20, (S)-2-(3,4-dimethoxyphenoxy)ethyl-1-((S)-2-cyclohexyl-2-(3,4,5-trimethoxyphenyl)acetyl)piperidine-2-carboxylate]
Ki [4, 8]: 100 to 1000 nM
Ki(FKBP51)/Ki(FKBP52) [2, 7]: ++ (>50 ++)

SMILES: COc1cc([C@@H](C(=O)N2CCCC[C@H]2C(=O)OC(CCCc2cccnc2)CCCc2cccnc2)C2CCCCC2)cc(OC)c1OC [Compound A19, (2S)-1,7-di(pyridin-3-yl)heptan-4-yl 1-(2-cyclohexyl-2-(3,4,5-trimethoxyphenyl)acetyl)piperidine-2-carboxylate]
Ki [4, 8]: < 100 nM
Ki(FKBP51)/Ki(FKBP52) [2, 7]: +++ (>500 +++)

SMILES: COc1ccc(CCC(OC(=O)[C@@H]2CCCCN2C(=O)C(NC(=O)c2cc(Cl)cc(Cl)c2)C2CCCCC2)c2cccc(OCC(=O)O)c2)cc1OC (stereo partly drawn) [Compound A28, 2-(3-(1-(((2S)-1-(2-cyclohexyl-2-(3,5-dichlorobenzamido)acetyl)piperidine-2-carbonyl)oxy)-3-(3,4-dimethoxyphenyl)propyl)phenoxy)acetic acid]
Ki [4, 8]: 10000 to 50000 nM
Ki(FKBP51)/Ki(FKBP52) [2, 7]: + (>5 +)

SMILES: COc1ccc(CCC(OC(=O)[C@@H]2CCCCN2C(=O)[C@H](NC(=O)c2ccccc2)C2CCCCC2)c2cccc(OCC(=O)O)c2)cc1OC (stereo partly drawn) [Compound A23, 2-(3-(1-(((2S)-1-(2-benzamido-2-cyclohexylacetyl)piperidine-2-carbonyl)oxy)-3-(3,4-dimethoxyphenyl)propyl)phenoxy)acetic acid]
Ki [4, 8]: 10000 to 50000 nM
Ki(FKBP51)/Ki(FKBP52) [2, 7]: + (>5 +)

SMILES: COc1ccc(OCCOC(=O)[C@@H]2CCCCN2C(=O)[C@H](c2cc(OC)c(OC)c(OC)c2)C2C=CCCC2)cc1OC (stereo in doubt) [Compound A14, (S)-2-(3,4-Dimethoxyphenoxy)ethyl-1-((S)-2-((R)-cyclohex-2-en-1-yl)-2-(3,4,5-trimethoxyphenyl)acetyl)piperidine-2-carboxylate]
Ki [4, 8]: 100 to 1000 nM
Ki(FKBP51)/Ki(FKBP52) [2, 7]: ++ (>50 ++)

The next lines start with the values.

Ki [1]: 1000 to 10000 nM
Ki(FKBP51)/Ki(FKBP52) ([2]; compounds B01-C25): +++ (>500 +++)
SMILES: COc1cc([C@@H](C(=O)N2CCCC[C@H]2C(=O)OCCCO)C2CCCCC2)cc(OC)c1OC [Compound C22]

Ki [1]: 1000 to 10000 nM
Ki(FKBP51)/Ki(FKBP52) ([2]; compounds B01-C25): ++ (>50 ++)
SMILES: COc1cc([C@@H](C(=O)N2CCCC[C@H]2C(=O)OC(C)CO)C2CCCCC2)cc(OC)c1OC (stereo partly drawn) [Compound C25]
